Experiments:
[1] = test system: binding between mTORC2 and ribosomes; assay: PLA of mTORC2-ribosome binding with Ca2+ chelators; assay type: cell-based; conditions: HT1080 cells, 10 μM
Description: FIG. 46A is the PLA result between the indicated proteins (fine and bright spots) in HT1080 cells treated with BAPTA-AM (10 μM), BAPTA (10 μM), and EGTA-AM (10 μM). The scale bar represents 15 μm. The graph on the right quantifies the fine, bright points (n=3, independent experiment). Data were expressed as mean±SD. **p<0.01; ****p<0.0001, Tukey's post hoc test after member ANOVA.
The role of Ca^2+ in mTORC2 activation was investigated. Ca^2+ depletion by BAPTA acetoxymethyl ester (BAPTA-AM) rather than BAPTA or slow Ca^2+ chelator (ie, EGTA-AM) blocked the binding between mTORC2 and ribosomes as shown in PLA analysis results. (See FIG. 46A).

BI-1 (TMBIM6) = assay: HT1080 xenograft with SAMiRNA knockdown of BI-1; assay type: in vivo, nude mice; conditions: 1 mg/kg, intravenously in the tail every 3 days
Description: FIGS. 13A-13D show the volume, weight, and size of tumors derived from HT1080 in TMBIM6-target SAMiRNA, control SAMiRNA or nude mice injected with saline solution (n=5 mice per group) through the tail vein. Data were expressed as mean±SD. *p<0.05, ***p<0.001, ****p<0.0001, Bonferroni's post hoc test (B) after binary ANOVA, member ANOVA followed by Tukey's post hoc test.
In culture, exponentially growing BI-1 (TMBIM6) knockout and WT HT1080 cells were treated with trypsin and quantified through trypan blue staining differentiation, and 3-5×10^6 cells were resuspended in 0.1 ml PBS. Cells were injected subcutaneously into the flanks of each mouse. 5×10^6 cells were injected into 0.1 ml PBS for SMAiRNA or BIA treatment. When the weight of the tumor reaches about 100 mg (7-10 days after inoculation), mice are randomly assigned 1 mg/kg BI-1 SAMiRNA diluted in saline, 1 mg/kg BIA diluted in DMSO (final concentration: 10% v/v) or vehicle (saline solution or DMSO, 10% v/v) was divided into groups.
SAMiRNA was administered intravenously in the tail every 3 days and BIA was injected intraperitoneally 5 days per week over 3 weeks. […].
After 25-28 days, the mice were euthanized, solid tumors were incised, and tumor volumes were recorded. Tumor size was measured with a caliper. The tumor volume (mm^3) was calculated by the formula [(shortest diameter)2×longest diameter]/2.

Row | Molecule | binding between mTORC2 and ribosomes [1] | tumor formation and Ki67 expression (BI-1 (TMBIM6))
1 | CC(=O)OCOC(=O)CN(CC(=O)OCOC(C)=O)c1ccccc1OCCOc1ccccc1N(CC(=O)OCOC(C)=O)CC(=O)OCOC(C)=O [BAPTA-AM, BAPTA acetoxymethyl ester] | blocked | 
2 | SAMiRNA: self-assembled micelle inhibitory RNA against BI-1, sequence 5′-AAGGCACUGCAUUGAUCUUU-3′, obtained from Bioneer (siRNA; micelle-forming conjugate, chemistry not fully specified) |  | reduced

Source: patent publication US20240139125A1 (INDUSTRIAL COOPERATION FOUNDATION JEONBUK NATIONAL …, priority 2020, published 2024)
